Results as given in patent publication US10065963B2 (Incyte Corporation, priority 2015, dated 2018).
Where a name gives a salt, the structure may show the parent alone. Read-outs that look alike come from different tables or passages of the source.

Columns and labels:
[1] = target: PI3Kδ (p110δ/p85α) Recombinant Human Protein (Homo sapiens (Human), UniProt O00329); experiment: PI3Kδ scintillation proximity assay; format: biochemical; conditions: 2 μM ATP, 20 μM PIP2
[2] = target: PI3Kγ (p110γ) Recombinant Human Protein (Homo sapiens (Human), UniProt P48736); experiment: PI3K-γ scintillation proximity assay; format: biochemical; conditions: 2 μM ATP, 20 μM PIP2
[3] = test system: Phosphorylated Ribosomal Protein S6 (RPS6) in THP-1 cells; experiment: THP-1 RPS6 ELISA assay; format: cell-based, human; conditions: 10 nM MCP-1, read-out: PI3Kγ_THP1_RPS6_ELISA IC50
[4] = Homo sapiens, THP-1, THP-1 cells

Chain of PI3Kγ (p110γ) Recombinant Human Protein (P48736 whole entry): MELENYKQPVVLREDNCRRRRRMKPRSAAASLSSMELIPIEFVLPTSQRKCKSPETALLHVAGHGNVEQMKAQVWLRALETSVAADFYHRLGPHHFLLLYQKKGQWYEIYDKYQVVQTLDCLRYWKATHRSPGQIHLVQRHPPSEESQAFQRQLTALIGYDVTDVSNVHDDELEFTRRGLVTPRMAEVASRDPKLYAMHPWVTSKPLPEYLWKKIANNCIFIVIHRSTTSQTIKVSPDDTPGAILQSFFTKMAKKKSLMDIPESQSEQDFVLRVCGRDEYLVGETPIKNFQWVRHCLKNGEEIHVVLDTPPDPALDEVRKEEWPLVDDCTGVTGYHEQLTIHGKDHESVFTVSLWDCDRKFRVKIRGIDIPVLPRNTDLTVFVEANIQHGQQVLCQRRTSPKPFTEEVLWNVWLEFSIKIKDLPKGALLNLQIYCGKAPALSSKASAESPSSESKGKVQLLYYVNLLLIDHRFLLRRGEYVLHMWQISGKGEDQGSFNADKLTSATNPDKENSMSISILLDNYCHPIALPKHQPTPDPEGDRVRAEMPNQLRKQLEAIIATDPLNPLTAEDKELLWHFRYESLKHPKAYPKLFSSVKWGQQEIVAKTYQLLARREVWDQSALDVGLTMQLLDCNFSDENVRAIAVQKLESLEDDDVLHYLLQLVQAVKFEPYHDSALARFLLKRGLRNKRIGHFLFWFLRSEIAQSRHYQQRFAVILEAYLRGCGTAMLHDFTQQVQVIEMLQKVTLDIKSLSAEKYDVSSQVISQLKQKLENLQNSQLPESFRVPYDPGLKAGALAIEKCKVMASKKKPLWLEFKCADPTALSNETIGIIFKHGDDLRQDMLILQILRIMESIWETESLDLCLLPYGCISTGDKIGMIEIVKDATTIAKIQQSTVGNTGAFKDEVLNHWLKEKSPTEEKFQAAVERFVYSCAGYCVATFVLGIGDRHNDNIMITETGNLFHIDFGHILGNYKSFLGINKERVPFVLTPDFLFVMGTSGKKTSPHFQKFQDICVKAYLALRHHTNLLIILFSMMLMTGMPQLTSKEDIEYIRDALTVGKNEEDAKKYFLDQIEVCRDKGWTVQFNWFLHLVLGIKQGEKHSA
Chain of PI3Kδ (p110δ/p85α) Recombinant Human Protein (O00329 whole entry): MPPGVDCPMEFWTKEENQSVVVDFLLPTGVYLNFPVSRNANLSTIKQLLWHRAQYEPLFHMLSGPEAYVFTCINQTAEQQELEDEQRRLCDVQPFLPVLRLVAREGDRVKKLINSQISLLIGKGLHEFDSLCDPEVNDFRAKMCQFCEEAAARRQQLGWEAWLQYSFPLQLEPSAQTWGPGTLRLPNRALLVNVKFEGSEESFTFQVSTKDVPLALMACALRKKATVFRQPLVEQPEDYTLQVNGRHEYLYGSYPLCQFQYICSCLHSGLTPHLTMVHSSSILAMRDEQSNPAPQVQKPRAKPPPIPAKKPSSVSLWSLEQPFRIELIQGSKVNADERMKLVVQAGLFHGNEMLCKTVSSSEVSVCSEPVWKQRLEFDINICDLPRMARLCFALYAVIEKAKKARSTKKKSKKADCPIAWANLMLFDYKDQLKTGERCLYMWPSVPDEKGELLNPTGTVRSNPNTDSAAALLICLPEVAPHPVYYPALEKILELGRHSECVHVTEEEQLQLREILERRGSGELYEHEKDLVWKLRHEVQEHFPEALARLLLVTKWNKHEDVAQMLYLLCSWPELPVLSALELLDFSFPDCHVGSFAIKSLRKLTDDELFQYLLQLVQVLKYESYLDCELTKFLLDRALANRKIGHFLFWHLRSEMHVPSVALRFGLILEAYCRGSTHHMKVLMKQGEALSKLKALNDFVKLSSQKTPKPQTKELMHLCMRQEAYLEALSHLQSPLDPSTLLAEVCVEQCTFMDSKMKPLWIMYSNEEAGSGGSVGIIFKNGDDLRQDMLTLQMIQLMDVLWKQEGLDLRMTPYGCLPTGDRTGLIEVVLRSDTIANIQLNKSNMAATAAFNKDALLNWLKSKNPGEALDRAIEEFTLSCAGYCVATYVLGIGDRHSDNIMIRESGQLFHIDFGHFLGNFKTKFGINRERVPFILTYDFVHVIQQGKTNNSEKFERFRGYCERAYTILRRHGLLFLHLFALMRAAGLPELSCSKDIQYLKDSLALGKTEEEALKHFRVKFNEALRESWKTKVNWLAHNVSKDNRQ
Chain of PI3Kδ (p110δ/p85α) Recombinant Human Protein (P27986 whole entry partner): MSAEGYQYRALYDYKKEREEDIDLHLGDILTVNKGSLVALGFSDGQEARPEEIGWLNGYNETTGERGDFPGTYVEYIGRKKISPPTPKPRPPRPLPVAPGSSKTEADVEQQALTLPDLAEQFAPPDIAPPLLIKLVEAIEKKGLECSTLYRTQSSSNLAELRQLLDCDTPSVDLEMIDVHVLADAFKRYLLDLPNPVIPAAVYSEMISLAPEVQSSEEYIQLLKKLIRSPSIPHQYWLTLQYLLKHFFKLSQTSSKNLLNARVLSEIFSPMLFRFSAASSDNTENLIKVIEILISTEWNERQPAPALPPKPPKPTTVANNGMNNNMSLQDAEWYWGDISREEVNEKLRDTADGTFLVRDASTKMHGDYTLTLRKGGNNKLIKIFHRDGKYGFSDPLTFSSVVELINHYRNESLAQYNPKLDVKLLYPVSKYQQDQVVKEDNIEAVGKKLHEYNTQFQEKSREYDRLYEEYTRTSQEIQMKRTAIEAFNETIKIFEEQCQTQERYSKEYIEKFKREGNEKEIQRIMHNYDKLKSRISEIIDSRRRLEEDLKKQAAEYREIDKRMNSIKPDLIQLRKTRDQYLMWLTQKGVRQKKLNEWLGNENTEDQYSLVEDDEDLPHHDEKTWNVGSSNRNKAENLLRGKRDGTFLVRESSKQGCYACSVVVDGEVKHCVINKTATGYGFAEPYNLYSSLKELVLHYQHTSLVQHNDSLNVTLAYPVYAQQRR

Row | IC50 [1] | IC50 [2] | IC50 [3, 4] | IC50 ([3]; THP-1 cells) | IC50 ([3]; THP-1 cells, trifluoroacetate) | Structure (SMILES)
1 | < 100 nM | < 100 nM | < 500 nM |  |  | Nc1nn2cccnc2c1C(=O)NC(c1cc(Cl)c2cncn2c1N1CCS(=O)(=O)CC1)C1CC1 (racemic) [Example 182, 2-Amino-N-((8-chloro-5-(1,1-dioxidothio-morpholino)imidazo [1,5-a]pyridin-6-yl)(cyclopropyl)methyl)pyrazolo [1,5-a] pyrimidine-3-carboxamide trifluoroacetate salt]
2 | < 100 nM | < 100 nM | < 500 nM |  |  | CCOc1c(C(C)NC(=O)c2c(N)nn3cccnc23)cc(Cl)c2cn[nH]c12 (single isomer, unassigned) [Example 3a, 2-amino-N-[1-(4-chloro-7-ethoxy-1H-indazol-6-yl)ethyl]pyrazolo[1,5-a]pyrimidine-3-carboxamide trifluoroacetate]
3 | < 100 nM | < 100 nM | < 500 nM |  |  | CC(NC(=O)c1c(N)nn2cccnc12)c1cc(Cl)c2cncn2c1N1CCS(=O)(=O)CC1 (single isomer, unassigned) [Example 36A, 2-Amino-N-(1-[8-chloro-5-(1,1-dioxidothiomorpholin-4-yl)imidazo[1,5-a]pyridin-6-yl]ethyl)pyrazolo[1,5-a]pyrimidine-3-carboxamide]
4 | < 100 nM | < 100 nM | < 500 nM |  |  | CC(NC(=O)c1c(N)nn2cccnc12)c1cc(Cl)c2cncn2c1N1CCS(=O)(=O)CC1C (single isomer, unassigned) [Example 38A, 2-Amino-N-(1-[8-chloro-5-(3-methyl-1,1-dioxidothiomorpholin-4-yl)imidazo[1,5-a]pyridin-6-yl]ethyl)pyrazolo[1,5-a]pyrimidine-3-carboxamide trifluoroacetate salt]
5 | < 100 nM | < 100 nM | < 500 nM |  |  | CC(NC(=O)c1c(N)nn2cccnc12)c1cc(Cl)c2cncn2c1N1CCCC(F)C1 (single isomer, unassigned) [Example 73A, 2-Amino-N-{1-[8-chloro-5-(3-fluoropiperidin-1-yl)imidazo[1,5-a]pyridin-6-yl]ethyl}pyrazolo[1,5-a]pyrimidine-3-carboxamide]
6 | < 100 nM | < 100 nM |  | < 500 nM |  | CC(NC(=O)c1c(N)nn2cccnc12)c1cc(Cl)c2cncn2c1N1CCCC(C)(C#N)C1 (single isomer, unassigned) [Example 77B, 2-Amino-N-{1-[8-chloro-5-(3-cyano-3-methylpiperidin-1-yl)imidazo[1,5-a]pyridin-6-yl]ethyl}pyrazolo[1,5-a]pyrimidinc-3-carboxamide trifluroacetate]
7 | < 500 nM | < 100 nM | < 500 nM |  |  | CC(NC(=O)c1c(N)nn2cccnc12)c1cc(Cl)c2cncn2c1N1CCCC(O)(C(F)(F)F)C1 (single isomer, unassigned) [Example 78A, 2-Amino-N-(1-{8-chloro-5-[3-hydroxy-3-(trifluoromethyl)piperidin-1-yl]imidazo[1,5-a]pyridin-6-yl}ethyl)pyrazolo[1,5-a]pyrimidine-3-carboxamide trifluoroacetate]
8 | < 100 nM | < 100 nM |  | < 500 nM |  | CC(NC(=O)c1c(N)nn2cccnc12)c1cc(Cl)c2cncn2c1N1CCCC(O)(C(F)(F)F)C1 (single isomer, unassigned) [Example 78B, 2-Amino-N-(1-{8-chloro-5-[3-hydroxy-3-(trifluoromethyl)piperidin-1-yl]imidazo[1,5-a]pyridin-6-yl}ethyl)pyrazolo[1,5-a]pyrimidine-3-carboxamide trifluoroacetate]
9 | < 500 nM | < 100 nM | < 500 nM |  |  | CC(NC(=O)c1c(N)nn2cccnc12)c1cc(Cl)c2cn[nH]c2c1N1CCC(O)C1 (single isomer, unassigned) [Example 90B, 2-Amino-N-{1-[4-chloro-7-(3-hydroxypyrrolidin-1-yl)-2H-indazol-6-yl]ethyl}pyrazolo[1,5-a]pyrimidine-3-carboxamide bis(trifluoroacetate)]
10 | < 500 nM | < 100 nM | < 1000 nM |  |  | CNC(=O)C1CCN(c2c(C(C)NC(=O)c3c(N)nn4cccnc34)cc(Cl)c3cn[nH]c23)C1 (single isomer, unassigned) [Example 103A, 2-Amino-N-[1-(4-chloro-7-{3-[(methylamino)carbonyl]pyrrolidin-1-yl}-2H-indazol-6-yl)ethyl]pyrazolo[1,5-a]pyrimidine-3-carboxamide trifluoroacetate]

Continued, compound first:

Row | Structure (SMILES) | IC50 [1] | IC50 [2] | IC50 [3, 4] | IC50 ([3]; THP-1 cells) | IC50 ([3]; THP-1 cells, trifluoroacetate)
11 | CC(NC(=O)c1c(N)nn2cccnc12)c1cc(Cl)c2cncn2c1N1CCCC(F)C1 (single isomer, unassigned) [Example 73B, 2-Amino-N-{1-[8-chloro-5-(3-fluoropiperidin-1-yl)imidazo[1,5-a]pyridin-6-yl]ethyl}pyrazolo[1,5-a]pyrimidine-3-carboxamide] | < 100 nM | < 100 nM |  | < 500 nM | 
12 | CC(NC(=O)c1c(N)nn2cccnc12)c1cc(Cl)c2cncn2c1N1CCCC(C)(O)C1 (single isomer, unassigned) [Example 76A, 2-Amino-N-{1-[8-chloro-5-(3-hydroxy-3-methylpiperidin-1-yl)imidazo[1,5-a]pyridin-6-yl]ethyl}pyrazolo[1,5-a]pyrimidine-3-carboxamide trifluoroacetate] | < 100 nM | < 100 nM | < 500 nM |  | 
13 | CC(NC(=O)c1c(N)nn2cccnc12)c1cc(Cl)c2cncn2c1N1CCCC(C)(O)C1 (single isomer, unassigned) [Example 76B, 2-Amino-N-{1-[8-chloro-5-(3-hydroxy-3-methylpiperidin-1-yl)imidazo[1,5-a]pyridin-6-yl]ethyl}pyrazolo[1,5-a]pyrimidine-3-carboxamide trifluoroacetate] | < 500 nM | < 100 nM |  | < 500 nM | 
14 | CC(NC(=O)c1c(N)nn2cccnc12)c1cc(Cl)c2cncn2c1N1CCCC(C)(C#N)C1 (single isomer, unassigned) [Example 77A, 2-Amino-N-{1-[8-chloro-5-(3-cyano-3-methylpiperidin-1-yl)imidazo[1,5-a]pyridin-6-yl]ethyl}pyrazolo[1,5-a]pyrimidine-3-carboxamide trifluroacetate] | < 500 nM | < 100 nM | < 500 nM |  | 
15 | CNC(=O)C1CCN(c2c(C(C)NC(=O)c3c(N)nn4cccnc34)cc(Cl)c3cn[nH]c23)C1 (single isomer, unassigned) [Example 103B, 2-Amino-N-[1-(4-chloro-7-{3-[(methylamino)carbonyl]pyrrolidin-1-yl}-2H-indazol-6-yl)ethyl]pyrazolo[1,5-a]pyrimidine-3-carboxamide trifluoroacetate] | < 500 nM | < 100 nM |  |  | < 500 nM
16 | C[C@H](NC(=O)c1c(N)nn2cccnc12)c1cc(Cl)c2cncn2c1N1CCS(=O)(=O)[C@H](C)C1 [Example 31A, 2-Amino-N-((1S)-1-(8-chloro-5-(2-methyl-1,1-dioxidothiomorpholino)imidazo[1,5-a]pyridin-6-yl)ethyl)pyrazolo[1,5-a]pyrimidine-3-carboxamide trifluoroacetate salt] | < 100 nM | < 100 nM | < 500 nM |  | 
